In US10941157B2, “Pesticidal compositions and uses thereof” (Gilead Apollo, LLC, priority 2015, dated 2021):
Values after ≈ are worked out from the molar mass of the structure shown.

Legend:
Type in all cases: cell-based
Botrtyis cinerea (Bc) = test: In vitro pathogen growth inhibition assay, Bc; details: 48 h, ≥90% inhibition; 48 hours vs 2% DMSO control; read-out: Compound Concentration (ppm) sufficient for ≥90% inhibition of growth, Bc
Procedure, shortened: (§1)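 Value reported is the compound concentration reaching ≥90% growth inhibition, from OD readings at 24 and 48 h after blank subtraction, confirmed visually. Inoculum was spores diluted in 17% V8 medium, except Rs, using 1.5 mm mycelial plugs in ¼ PDB; actual compound concentration corrected via OD600.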

[1] = test system: Collectotrichum graminicola (Cg); test: In vitro pathogen growth inhibition assay, Cg; details: 48 h, ≥90% inhibition; 48 hours vs 2% DMSO control; read-out: Compound Concentration (ppm) sufficient for ≥90% inhibition of growth, Cg
Procedure, shortened: as §1

Diplodia maydis (Dm) = test: In vitro pathogen growth inhibition assay, Dm; details: Stenocarpella maydis, 48 h, ≥90% inhibition; 48 hours vs 2% DMSO control; read-out: Compound Concentration (ppm) sufficient for ≥90% inhibition of growth, Dm
Procedure, shortened: (§2)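 Spores in 17% V8 liquid medium, or 1.5 mm Rs mycelial plugs in ¼ PDB, incubated with compound; final concentration checked by OD600 for precipitation. OD readings at 24 and 48 h, blank-subtracted, plus visual ratings; value is concentration giving ≥90% growth inhibition.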

[2] = test system: Fusarium moniliforme (Fm); test: In vitro pathogen growth inhibition assay, Fm; details: Fusarium verticillioides; ≥90% inhibition; 48 hours vs 2% DMSO control; read-out: Compound Concentration (ppm) sufficient for ≥90% inhibition of growth, Fm
Procedure, shortened: as §1

[3] = test system: Fusarium virguliforme (Fv); test: In vitro pathogen growth inhibition assay, Fv; details: ≥90% inhibition, 48 hours vs 2% DMSO control, read-out: Compound Concentration (ppm) sufficient for ≥90% inhibition of growth, Fv
Procedure, shortened: as §2

[4] = test system: Phytophthora capsici (Pc); test: In vitro pathogen growth inhibition assay, Pc; details: 48 h, ≥90% inhibition, 48 hours vs 2% DMSO control, read-out: Compound Concentration (ppm) sufficient for ≥90% inhibition of growth, Pc
Procedure, shortened: as §2

Rhizoctonia solani (Rs) = test: In vitro pathogen growth inhibition assay, Rs (mycelial plugs); details: Rhizoctonia solani, 48 h, ≥90% inhibition; mycelial plugs; 48 hours vs 2% DMSO control; read-out: Compound Concentration (ppm) sufficient for ≥90% inhibition of growth, Rs
Procedure, shortened: as §2

Septoria tritici (St) = test: In vitro pathogen growth inhibition assay, St; details: Zymoseptoria tritici, 48 h, ≥90% inhibition; 48 hours vs 2% DMSO control; read-out: Compound Concentration (ppm) sufficient for ≥90% inhibition of growth, St
Procedure, shortened: as §1

| IC90 (Botrtyis cinerea (Bc)) [µg/mL] | IC90 [1] [µg/mL] | IC90 (Diplodia maydis (Dm)) [µg/mL] | IC90 [2] [µg/mL] | IC90 [3] [µg/mL] | IC90 [4] [µg/mL] | IC90 (Rhizoctonia solani (Rs)) [µg/mL] | IC90 (Septoria tritici (St)) [µg/mL] | SMILES |
| --- | --- | --- | --- | --- | --- | --- | --- | --- |
| ≥ 0.4 | 10 (≈ 16.7 µM) | ≥ 2 | 0.4 (≈ 0.668 µM) | 10 (≈ 16.7 µM) | 50 (≈ 83.5 µM) | 2 (≈ 3.34 µM) | > 50 | COc1ccc(F)cc1[C@H](Cn1c(=O)n(C(C)(C)C(N)=O)c(=O)c2c(C)c(-n3nccn3)sc21)OC1CCC(=O)CC1 [Compound I-124] |
| 2 (≈ 3.5 µM) | ≥ 2 | > 50 | 0.4 (≈ 0.7 µM) | 0.4 (≈ 0.7 µM) | > 50 | ≥ 2 | > 50 | CCO[C@@H](Cn1c(=O)n(C(C)(C)C(=O)NC(C)C)c(=O)c2c(C)c(-n3cccn3)sc21)c1cc(F)ccc1OC [Compound I-125] |
| 2 (≈ 3.5 µM) | 2 (≈ 3.5 µM) | 2 (≈ 3.5 µM) | 0.4 (≈ 0.7 µM) | 1.2 (≈ 2.1 µM) | 50 (≈ 87.5 µM) | 2 (≈ 3.5 µM) | 50 (≈ 87.5 µM) | COc1ccc(F)cc1[C@H](Cn1c(=O)n(C(C)C(=O)NC(C)C)c(=O)c2c(C)c(-n3cccn3)sc21)OC(C)C (some centres unmarked) [Compound I-126] |
| 2 (≈ 3.5 µM) | 2 (≈ 3.5 µM) | 2 (≈ 3.5 µM) | 0.4 (≈ 0.7 µM) | 0.4 (≈ 0.7 µM) | > 50 | 2 (≈ 3.5 µM) | > 50 | COc1ccc(F)cc1[C@H](Cn1c(=O)n([C@H](C)C(=O)NC(C)C)c(=O)c2c(C)c(-n3cccn3)sc21)OC(C)C [Compound I-127] |
| 2 (≈ 3.51 µM) | 10 (≈ 17.6 µM) | > 10 | 0.4 (≈ 0.702 µM) | 2 (≈ 3.51 µM) | > 50 | ≥ 2 | > 50 | COc1ccc(F)cc1[C@H](Cn1c(=O)n(CC(=O)N2CCCC2)c(=O)c2c(C)c(-n3cccn3)sc21)OC(C)C [Compound I-128] |
| 2 (≈ 3.4 µM) | 2 (≈ 3.4 µM) | 10 (≈ 17 µM) | 0.4 (≈ 0.681 µM) | 2 (≈ 3.4 µM) | 50 (≈ 85.1 µM) | 2 (≈ 3.4 µM) | > 50 | COc1ccc(F)cc1[C@H](Cn1c(=O)n(C(C)(C)C(=O)NC(C)C)c(=O)c2c(C)c(-n3cccn3)sc21)OCCO [Compound I-129] |
| 2 (≈ 3.33 µM) | 2 (≈ 3.33 µM) | ≥ 2 | 0.4 (≈ 0.666 µM) | ≥ 0.4 | 50 (≈ 83.2 µM) | ≥ 2 | ≥ 50 | COc1ccc(F)cc1[C@H](Cn1c(=O)n(C(C)(C)C(=O)N2CCCC2)c(=O)c2c(C)c(-n3nccn3)sc21)OCCO [Compound I-130] |
| 0.4 (≈ 0.698 µM) | 10 (≈ 17.5 µM) | 2 (≈ 3.49 µM) | 0.4 (≈ 0.698 µM) | 0.4 (≈ 0.698 µM) | > 50 | ≥ 0.4 | > 50 | COc1ccc(F)cc1[C@H](Cn1c(=O)n(C(C)(C)C(=O)N(C)C)c(=O)c2c(C)c(-n3nccn3)sc21)OC(C)C [Compound I-131] |

Further lines, the compound ahead of its results:

| SMILES | IC90 (Botrtyis cinerea (Bc)) [µg/mL] | IC90 [1] [µg/mL] | IC90 (Diplodia maydis (Dm)) [µg/mL] | IC90 [2] [µg/mL] | IC90 [3] [µg/mL] | IC90 [4] [µg/mL] | IC90 (Rhizoctonia solani (Rs)) [µg/mL] | IC90 (Septoria tritici (St)) [µg/mL] |
| --- | --- | --- | --- | --- | --- | --- | --- | --- |
| COCCO[C@@H](Cn1c(=O)n(CC(=O)NC(C)C)c(=O)c2c(C)c(-n3nccn3)sc21)c1cc(F)ccc1OC [Compound I-086] | > 50 | > 50 | > 50 | 0.08 (≈ 0.139 µM) | ≥ 2 | > 50 | 10 (≈ 17.4 µM) | > 50 |
| COc1ccc(F)cc1[C@H](Cn1c(=O)n(CC(=O)NC(C)C)c(=O)c2c(C)c(-n3nccn3)sc21)OCCO [Compound I-087] | 2 (≈ 3.57 µM) | 2 (≈ 3.57 µM) | > 50 | 0.08 (≈ 0.143 µM) | 2 (≈ 3.57 µM) | > 50 | 2 (≈ 3.57 µM) | > 50 |
| COc1ccc(F)cc1[C@H](Cn1c(=O)n(CC(=O)N2CCCC2)c(=O)c2c(C)c(-n3nccn3)sc21)OCCO [Compound I-088] | 0.08 (≈ 0.14 µM) | 2 (≈ 3.49 µM) | 2 (≈ 3.49 µM) | 0.08 (≈ 0.14 µM) | 0.4 (≈ 0.699 µM) | > 50 | 0.08 (≈ 0.14 µM) | > 50 |
| COc1ccc(F)cc1[C@H](Cn1c(=O)n([C@@H](C)C(=O)NC2CCC2)c(=O)c2c(C)c(-n3nccn3)sc21)OCCO [Compound I-091] | 0.4 (≈ 0.682 µM) | ≥ 2 | 2 (≈ 3.41 µM) | 0.08 (≈ 0.136 µM) | 0.4 (≈ 0.682 µM) | > 50 | 2 (≈ 3.41 µM) | > 50 |
| COCCCO[C@@H](Cn1c(=O)n([C@@H](C)C(=O)NC(C)C)c(=O)c2c(C)c(-n3nccn3)sc21)c1cc(F)ccc1OC [Compound I-093] | 0.4 (≈ 0.664 µM) | 10 (≈ 16.6 µM) | 2 (≈ 3.32 µM) | 0.08 (≈ 0.133 µM) | 10 (≈ 16.6 µM) | > 50 | 2 (≈ 3.32 µM) | > 50 |
| COc1ccc(F)cc1[C@H](Cn1c(=O)n([C@H](C)C(=O)NC(C)C)c(=O)c2c(C)c(-n3nccn3)sc21)OCCO [Compound I-097] | 0.4 (≈ 0.696 µM) | 50 (≈ 87 µM) | ≥ 2 | 0.08 (≈ 0.139 µM) | 2 (≈ 3.48 µM) | > 50 | 2 (≈ 3.48 µM) | > 50 |
| COc1ccc(F)cc1[C@H](Cn1c(=O)n(C(C)(C)C(N)=O)c(=O)c2c(C)c(-n3nccn3)sc21)OC(C)C [Compound I-113] | 2 (≈ 3.67 µM) | 2 (≈ 3.67 µM) | 2 (≈ 3.67 µM) | 0.4 (≈ 0.734 µM) | 0.4 (≈ 0.734 µM) | > 50 | 0.08 (≈ 0.147 µM) | 50 (≈ 91.8 µM) |
| COc1ccc(F)cc1[C@H](Cn1c(=O)n(C(C)(C)C(=O)N2CC(O)C2)c(=O)c2c(C)c(-n3nccn3)sc21)OC1CCOCC1 [Compound I-114] | 2 (≈ 3.11 µM) | 10 (≈ 15.6 µM) | 10 (≈ 15.6 µM) | 0.4 (≈ 0.622 µM) | 2 (≈ 3.11 µM) | > 50 | 10 (≈ 15.6 µM) | > 50 |
| COc1ccc(F)cc1[C@H](Cn1c(=O)n(C(C)(C)C(=O)NC(C)C)c(=O)c2c(C)c(-n3cccn3)sc21)OC1CCOCC1 [Compound I-115] | 2 (≈ 3.19 µM) | ≥ 2 | ≥ 2 | 0.4 (≈ 0.637 µM) | 2 (≈ 3.19 µM) | > 50 | 10 (≈ 15.9 µM) | ≥ 50 |
| COc1ccccc1[C@H](Cn1c(=O)n(C(C)(C)C(=O)N2CCCC2)c(=O)c2c(C)c(-n3cccn3)sc21)OC1CCOCC1 [Compound I-116] | 10 (≈ 16.1 µM) | ≥ 2 | 10 (≈ 16.1 µM) | 0.4 (≈ 0.643 µM) | 10 (≈ 16.1 µM) | > 50 | 2 (≈ 3.22 µM) | ≥ 50 |
| COc1ccccc1[C@H](Cn1c(=O)n(C(C)(C)C(=O)N2CCCCC2)c(=O)c2c(C)c(-n3cccn3)sc21)OC1CCOCC1 [Compound I-117] | 2 (≈ 3.15 µM) | 10 (≈ 15.7 µM) | 10 (≈ 15.7 µM) | 0.4 (≈ 0.629 µM) | 10 (≈ 15.7 µM) | > 50 | 10 (≈ 15.7 µM) | > 50 |
| COc1ccccc1[C@H](Cn1c(=O)n(C(C)(C)C(=O)NC(C)C)c(=O)c2c(C)c(-n3cccn3)sc21)OC(C)C [Compound I-118] | 2 (≈ 3.52 µM) | 10 (≈ 17.6 µM) | 2 (≈ 3.52 µM) | 0.4 (≈ 0.705 µM) | 0.4 (≈ 0.705 µM) | > 50 | 50 (≈ 88.1 µM) | ≥ 50 |
| COc1ccccc1[C@H](Cn1c(=O)n(C(C)(C)C(=O)NC(C)C)c(=O)c2c(C)c(-n3cccn3)sc21)OCC(C)C [Compound I-119] | 2 (≈ 3.44 µM) | 10 (≈ 17.2 µM) | ≥ 2 | 0.4 (≈ 0.688 µM) | 10 (≈ 17.2 µM) | > 50 | 2 (≈ 3.44 µM) | > 50 |
| COc1ccccc1[C@H](Cn1c(=O)n(C(C)(C)C(=O)N2CCCC2)c(=O)c2c(C)c(-n3cccn3)sc21)OCC(C)C [Compound I-120] | 2 (≈ 3.37 µM) | 2 (≈ 3.37 µM) | 2 (≈ 3.37 µM) | 0.4 (≈ 0.674 µM) | 10 (≈ 16.8 µM) | > 50 | 2 (≈ 3.37 µM) | > 50 |
| COc1ccccc1[C@H](Cn1c(=O)n(C(C)(C)C(=O)N2CCCCC2)c(=O)c2c(C)c(-n3cccn3)sc21)OCC(C)C [Compound I-121] | 2 (≈ 3.29 µM) | 10 (≈ 16.5 µM) | ≥ 2 | 0.4 (≈ 0.658 µM) | > 50 | > 50 | 50 (≈ 82.3 µM) | > 50 |
| COc1ccc(F)cc1[C@H](Cn1c(=O)n(C(C)(C)C(=O)N2CCCC2)c(=O)c2c(C)c(-n3cccn3)sc21)OC1CCC(=O)CC1 [Compound I-122] | 2 (≈ 3.07 µM) | ≥ 2 | 10 (≈ 15.3 µM) | 0.4 (≈ 0.614 µM) | ≥ 2 | > 50 | 2 (≈ 3.07 µM) | > 50 |
| COc1ccc(F)cc1[C@H](Cn1c(=O)n(C(C)(C)C(=O)N2CCCC2)c(=O)c2c(C)c(-n3cccn3)sc21)O[C@H]1CC[C@@H](O)CC1 [Compound I-123] | 2 (≈ 3.06 µM) | ≥ 10 | 10 (≈ 15.3 µM) | 0.4 (≈ 0.612 µM) | 2 (≈ 3.06 µM) | > 50 | 10 (≈ 15.3 µM) | > 50 |
